In test [1] the target is T1, serotonin (5-HT) reuptake (Rattus norvegicus, UniProt P31652).
T1 construct: synaptosomes are freshly isolated from areas of the rat brain; from tissue; host or cells: rat brain synaptosomes (P2 fraction)
Nature of the test: Inhibition of serotonin (5HT) reuptake in synaptosomes from rat brain. It is filed as biochemical. To be noted: test concentration of 10 μM; for inhibition at 10 µM: read-out: 5-HT (inhibition of reuptake of serotonin, % inhibition). Here is the method: Binding data of the compounds on the μ opioid receptor and data on the inhibition of reuptake of serotonin (5-HT) are given in Table 1. The data for the μ receptor were measured at a test concentration of 1 μM, and those for the serotonin reuptake at 10 μM. The values are stated in % inhibition.
Inhibition of Serotonin (5HT) Reuptake
In order to be able to carry out these in vitro studies, synaptosomes are freshly isolated from areas of the rat brain. In each case a so-called “P2” fraction prepared in accordance with the instructions of Gray and Whittaker (E. G. Gray and V. P. Whittaker (1962) J. Anat. 76, 79-88) is prepared. For the NA uptake, these vesicular particles are isolated from the hypothalamus of male rat brains.
A detailed description of the method can be found in the literature (M. Ch. Frink, H.-H. Hennies, W. Englberger, M. Haurand and B. Wilffert (1996) Arzneim.-Forsch./Drug Res. 46 (III), 11, 1029-1036).

The target in another test is T2, human μ opiate receptor (Homo sapiens, UniProt P35372).
T2 construct: purchased PerkinElmer Life Sciences, Zaventem, Belgium RB-HOM; host or cells: CHO-K1 cells (membrane preparation)
T2 sequence (P35372 whole entry): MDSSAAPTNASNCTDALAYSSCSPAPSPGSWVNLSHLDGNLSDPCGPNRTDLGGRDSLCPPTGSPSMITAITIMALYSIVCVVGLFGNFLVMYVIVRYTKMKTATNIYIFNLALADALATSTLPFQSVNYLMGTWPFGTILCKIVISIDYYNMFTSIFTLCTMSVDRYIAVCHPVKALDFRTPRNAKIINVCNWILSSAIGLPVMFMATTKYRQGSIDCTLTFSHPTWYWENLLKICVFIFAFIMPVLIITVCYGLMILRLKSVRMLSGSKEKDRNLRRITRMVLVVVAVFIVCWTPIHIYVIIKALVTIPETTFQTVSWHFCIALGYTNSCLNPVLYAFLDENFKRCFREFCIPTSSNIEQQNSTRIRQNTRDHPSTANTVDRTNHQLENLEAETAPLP
Briefly: Affinity for the human μ opiate receptor ([3H]-naloxone displacement, CHO-K1 receptor membrane preparation, SPA). It is filed as binding. A digest of the protocol: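 Displacement of 1 nmol/l [3H]-naloxone measured by SPA counting after 90 min at room temperature, using human μ receptor CHO-K1 membrane preparation in Tris-HCl buffer with 0.06% BSA. Test substances at 1 μmol/l give % inhibition; dilution series yield IC50, then Ki (Cheng-Prusoff); non-specific binding with 100 μmol/l naloxone.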

In test [2] the target is T3, bradykinin 1 receptor (B1R) of the rat (Rattus norvegicus, UniProt P97583).
T3 construct: expressed in transfected cells; host or cells: CHO K1 cells
T3 sequence (P97583 1-337): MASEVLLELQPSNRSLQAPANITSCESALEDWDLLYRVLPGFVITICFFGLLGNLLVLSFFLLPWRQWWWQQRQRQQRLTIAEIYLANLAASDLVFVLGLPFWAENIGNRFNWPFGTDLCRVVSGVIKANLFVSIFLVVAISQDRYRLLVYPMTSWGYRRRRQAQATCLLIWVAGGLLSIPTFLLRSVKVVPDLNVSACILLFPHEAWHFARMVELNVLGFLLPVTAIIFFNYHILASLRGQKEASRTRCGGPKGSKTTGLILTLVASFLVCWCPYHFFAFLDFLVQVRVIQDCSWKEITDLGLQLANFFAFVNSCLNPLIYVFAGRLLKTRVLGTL
Nature of the test: Functional investigation on the rat bradykinin 1 receptor (B1R), Ca2+ FLIPR assay in CHO K1 rB1R cells. It is filed as cell-based. To be noted: B1R antagonism rat; test substance 10 μM; Ca2+ FLIPR, CHO K1 rB1R cells. Put shortly: (§1)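 Fluo-4 Ca2+ readout, peak fluorescence. Stable CHO K1 transfectants; compound pre-incubated 10-20 min, then EC80 agonist—Lys-Des-Arg9-BK for hB1R, Des-Arg9-BK for rB1R. % inhibition vs maximal inhibition; IC50 from multiple concentrations, duplicate/triplicate, ≥2 independent runs.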

In test [3] the target is T4, human bradykinin 1 receptor (B1R) (Homo sapiens, UniProt P46663).
T4 construct: expressed in transfected cells; host or cells: CHO K1 cells
T4 sequence (P46663 1-353): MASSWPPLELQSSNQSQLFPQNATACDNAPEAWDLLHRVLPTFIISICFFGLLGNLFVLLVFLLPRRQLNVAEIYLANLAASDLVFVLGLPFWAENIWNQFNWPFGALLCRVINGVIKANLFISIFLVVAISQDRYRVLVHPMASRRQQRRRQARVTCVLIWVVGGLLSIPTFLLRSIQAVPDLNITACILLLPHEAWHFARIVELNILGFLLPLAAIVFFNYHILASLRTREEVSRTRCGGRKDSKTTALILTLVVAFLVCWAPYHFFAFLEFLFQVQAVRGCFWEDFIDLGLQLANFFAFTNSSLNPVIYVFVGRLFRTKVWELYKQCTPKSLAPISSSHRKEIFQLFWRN
Nature of the test: Functional investigation on the human bradykinin 1 receptor (B1R), Ca2+ FLIPR assay in CHO K1 hB1R cells. It is filed as cell-based. To be noted: B1R antagonism human; test substance 10 μM; Ca2+ FLIPR, CHO K1 hB1R cells. A digest of the protocol: as §1

The mark [4] stands for this setting: test concentration of 1 μM, 1 µM.

T1 sequence (P31652 whole entry): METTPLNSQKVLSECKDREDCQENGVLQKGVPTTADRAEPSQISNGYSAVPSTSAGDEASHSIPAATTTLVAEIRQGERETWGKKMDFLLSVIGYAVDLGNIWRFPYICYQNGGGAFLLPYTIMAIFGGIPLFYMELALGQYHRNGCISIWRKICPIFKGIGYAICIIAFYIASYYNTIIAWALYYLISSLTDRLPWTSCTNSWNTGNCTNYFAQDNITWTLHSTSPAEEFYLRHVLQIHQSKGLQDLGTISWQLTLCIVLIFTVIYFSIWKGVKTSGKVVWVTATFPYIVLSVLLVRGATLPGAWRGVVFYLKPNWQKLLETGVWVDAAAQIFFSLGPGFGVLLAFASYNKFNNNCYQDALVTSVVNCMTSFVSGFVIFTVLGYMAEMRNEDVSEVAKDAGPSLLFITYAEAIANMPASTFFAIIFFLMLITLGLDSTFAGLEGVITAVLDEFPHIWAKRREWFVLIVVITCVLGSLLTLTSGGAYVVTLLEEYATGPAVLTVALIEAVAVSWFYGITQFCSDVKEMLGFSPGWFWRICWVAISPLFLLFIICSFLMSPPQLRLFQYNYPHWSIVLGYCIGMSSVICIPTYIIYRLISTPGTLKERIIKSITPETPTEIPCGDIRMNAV

In the case of `CC(Oc1ccccc1)C(=O)NCC1CCC(C(c2ccc(Cl)cc2)N(C)C)CC1` (single isomer, unassigned) [Example 237], the “5-HT (inhibition of reuptake of serotonin, % inhibition)” value in test [1] (10 µM) was determined as 52%. Moreover, the “μ (binding on the μ opioid receptor, % inhibition)” value on human μ opiate receptor (test concentration of 1 μM) is on record as 81%. For the molecule `CC(Oc1ccccc1)C(=O)NCC1CCC(C(c2ccc(Cl)cc2)N(C)C)CC1` (single isomer, unassigned) [Example 238], the “5-HT (inhibition of reuptake of serotonin, % inhibition)” value in test [1] (10 µM) was found to be 38%. Moreover, on human μ opiate receptor (test concentration of 1 μM), the “μ (binding on the μ opioid receptor, % inhibition)” value was 81%. Regarding `CC(Oc1ccccc1)C(=O)NCC1CCC(C(c2cccs2)N(C)C)CC1` (stereo not shown) [Example 2, N-((4-((dimethylamino)(thiophen-2-yl)methyl)cyclohexyl)methyl)-2-phenoxypropanamide], the inhibition at 10 µM in test [1] was found to be 69%. For the molecule `CC(Oc1ccccc1)C(=O)NCC1CCC(C(c2ccccc2)N(C)C)CC1` (stereo not shown) [Example 50, N-((4-((dimethylamino)(phenyl)methyl)cyclohexyl)methyl)-2-phenoxypropanamide], in test [1], the inhibition at 10 µM amounted to 65%. For the molecule `CC(Oc1ccccc1)C(=O)NCC1CCC(C(c2cccc(F)c2)N(C)C)CC1` (stereo not shown) [Example 79, N-((4-((dimethylamino)(3-fluorophenyl)methyl)cyclohexyl)methyl)-2-phenoxypropanamide], the “5-HT (inhibition of reuptake of serotonin, % inhibition)” value in test [1] (10 µM) is recorded as 64%.

`CC(Oc1ccccc1)C(=O)NCC1CCC(C(c2cccc(F)c2)N(C)C)CC1` (stereo not shown) [Example 108, N-((4-((dimethylamino)(3-fluorophenyl)methyl)cyclohexyl)methyl)-2-phenoxypropanamide]: the inhibition at 10 µM in test [1] was 63%. Moreover, on human μ opiate receptor (test concentration of 1 μM, read-out: μ (binding on the μ opioid receptor, % inhibition)), the inhibition at 1 µM amounted to 91%. For the molecule `CC(Oc1ccccc1)C(=O)NCC1CCC(C(c2cccc(F)c2)N(C)C)CC1` (stereo not shown) [Example 122, N-((4-((dimethylamino)(3-fluorophenyl)methyl)cyclohexyl)methyl)-2-phenoxypropanamide], the “5-HT (inhibition of reuptake of serotonin, % inhibition)” value in test [1] (10 µM) came out at 57%. Regarding `CN(C)C(c1ccccc1)C1CCC(CCNC(=O)COCc2ccccc2)CC1` (stereo not shown) [Example 134, 2-(benzyloxy)-N-(2-(4-((dimethylamino)(phenyl)-methyl)cyclohexyl)ethyl)acetamide], the inhibition at 10 µM in test [1] is 67%. The same measure, in the same setting: the result for `CC(Oc1ccccc1)C(=O)NC1CCC(C(c2cccc(F)c2)N(C)C)CC1` (stereo not shown) [Example 153, N-(4-((dimethylamino)(3-fluorophenyl)methyl)cyclohexyl)-2-phenoxypropanamide] reads 27%. Same read-out and setting: under `CC(Oc1ccccc1)C(=O)NC1CCC(C(c2ccccc2)N(C)C)CC1` (stereo not shown) [Example 181, N-(4-((dimethylamino)(phenyl)methyl)cyclohexyl)-2-phenoxypropanamide] stands 46%. Consider `CC(Oc1ccccc1)C(=O)NCC1CCC(C(c2ccc(F)cc2)N(C)C)CC1` (stereo not shown) [Example 236], for which the “5-HT (inhibition of reuptake of serotonin, % inhibition)” value in test [1] is recorded as 63%. The “μ (binding on the μ opioid receptor, % inhibition)” value at human μ opiate receptor (test concentration of 1 μM) was found to be 81%. On the same counts, the results for `CN(C)C(c1ccccc1)C1CCC(NC(=O)COCc2ccccc2)CC1` (stereo not shown) [Example 245] are 59% and 80%. Taken in the same sequence, the figures for `CC(Oc1ccccc1)C(=O)NCCC1CCC(C(c2ccccc2)N(C)C)CC1` (stereo not shown) [Example 270] were 73% and 77%. Consider `CC(Oc1ccccc1)C(=O)NCCC1CCC(C(c2cccs2)N(C)C)CC1` (stereo not shown) [Example 315], for which, in test [1], the “5-HT (inhibition of reuptake of serotonin, % inhibition)” value is 61%. In addition, the “μ (binding on the μ opioid receptor, % inhibition)” value on human μ opiate receptor (test concentration of 1 μM) amounted to 72%. Turning to `CN(C)C(c1ccccc1)C1CCC(NC(=O)COc2ccc(Cl)cc2)CC1` (stereo not shown) [Example 316], in test [1], the “5-HT (inhibition of reuptake of serotonin, % inhibition)” value worked out at 59%. Also, on human μ opiate receptor (test concentration of 1 μM), the “μ (binding on the μ opioid receptor, % inhibition)” value was 72%. Regarding `CN(C)C(c1cccc(F)c1)C1CCC(NC(=O)COCc2ccccc2)CC1` (stereo not shown) [Example 353], the “5-HT (inhibition of reuptake of serotonin, % inhibition)” value in test [1] was determined as 60%. Also, the “μ (binding on the μ opioid receptor, % inhibition)” value at human μ opiate receptor (test concentration of 1 μM) amounted to 67%. Taken in the same sequence, the figures for `CC(=O)OC(C(=O)NCC1CCC(C(c2ccc(Cl)cc2)N(C)C)CC1)c1ccccc1` (stereo not shown) [Example 360] were 15% and 66%. On the same counts, the results for `CCOC(=O)C(=O)NCC1CCC(C(CCc2ccccc2)N(C)C)CC1` (stereo not shown) [Example 421] are 26% and 57%.

Take `CC(Oc1ccccc1)C(=O)NCCC1CCC(C(c2ccc(F)cc2)N(C)C)CC1` (stereo not shown) [Example 455]: in test [1], the “5-HT (inhibition of reuptake of serotonin, % inhibition)” value was 74%. Also, the “μ (binding on the μ opioid receptor, % inhibition)” value on human μ opiate receptor (test concentration of 1 μM) stood at 51%. On to `CN(C)C(c1ccc(Cl)cc1)C1CCC(CCNC(=O)COCc2ccccc2)CC1` (stereo not shown) [Example 482], for which, in test [1], the “5-HT (inhibition of reuptake of serotonin, % inhibition)” value amounted to 55%. For the same molecule, the “μ (binding on the μ opioid receptor, % inhibition)” value at human μ opiate receptor (test concentration of 1 μM) was found to be 47%. With `CC(Oc1ccccc1)C(=O)NCC1CCC(C(CCc2ccccc2)N(C)C)CC1` (stereo not shown) [Example 495], the “5-HT (inhibition of reuptake of serotonin, % inhibition)” value in test [1] was 48%. Moreover, on human μ opiate receptor (test concentration of 1 μM), the “μ (binding on the μ opioid receptor, % inhibition)” value was found to be 44%. On the same counts, the results for `CN(C)C(c1cccc(F)c1)C1CCC(NC(=O)COc2ccc(Cl)cc2)CC1` (stereo not shown) [Example 505] are 59% and 42%. Regarding `CN(C)C(c1ccc(F)cc1)C1CCC(NC(=O)COCc2ccccc2)CC1` (stereo not shown) [Example 529], in test [1], the “5-HT (inhibition of reuptake of serotonin, % inhibition)” value was 59%. Further, at human μ opiate receptor (test concentration of 1 μM), the “μ (binding on the μ opioid receptor, % inhibition)” value amounted to 37%. As to `CC(Oc1ccccc1)C(=O)NC1CCC(C(CCc2ccccc2)N(C)C)CC1` (stereo not shown) [Example 545], the “5-HT (inhibition of reuptake of serotonin, % inhibition)” value in test [1] (10 µM) is on record as 52%. Further, the “μ (binding on the μ opioid receptor, % inhibition)” value on human μ opiate receptor (setting [4]) is 30%. Consider `CN(C)C(CCc1ccccc1)C1CCC(NC(=O)COc2ccc(Cl)cc2)CC1` (stereo not shown) [Example 564], for which, in test [1], the “5-HT (inhibition of reuptake of serotonin, % inhibition)” value was determined as 47%. Moreover, the “μ (binding on the μ opioid receptor, % inhibition)” value on human μ opiate receptor (test concentration of 1 μM) is 24%. For `CC(Oc1ccccc1)C(=O)NC1CCC(C(CCc2ccccc2)N(C)C)CC1` (stereo not shown) [Example 577], in test [1] (10 µM), the “5-HT (inhibition of reuptake of serotonin, % inhibition)” value came out at 16%. Moreover, the “μ (binding on the μ opioid receptor, % inhibition)” value at human μ opiate receptor (setting [4]) was 14%. As for `COC(=O)C(=O)NCCC1CCC(C(c2ccccc2)N(C)C)CC1` (stereo not shown) [Example 579], the “5-HT (inhibition of reuptake of serotonin, % inhibition)” value in test [1] is 59%. Moreover, the “μ (binding on the μ opioid receptor, % inhibition)” value on human μ opiate receptor (test concentration of 1 μM) is 11%. Taken in the same sequence, the figures for `CN(C)C(CCc1ccccc1)C1CCC(NC(=O)COCc2ccccc2)CC1` (stereo not shown) [Example 582] were 75% and 9%. For the molecule “N-((4-(morpholino(phenyl)methyl)cyclohexyl)methyl)-2-((1-(2,4,6-trichlorophenylsulfonyl)piperidin-3-yl)methoxy)acetamide [Example 713]”, the “B1R Ant. r [10 μM] % Inhibition” value in test [2] amounted to 16%. On human μ opiate receptor (Table 3, to be read in the same way as Table 1, test concentration 1 μM), the μ stood at 14 % inhibition. Besides, the “B1R Ant. h [10 μM] % Inhibition” value in test [3] is recorded as −15%.

As a reminder, the inhibition is how much of the control response was suppressed.

The record behind these values is US8106055B2, “Substituted amide compounds” (Gruenenthal GmbH, priority 2007, dated 2012).
